Results on 4 molecules are retold here after publication PMC12609950, “Evaluation of ^161Tb-Labeled Diphosphonates as Potential Bone-Targeting Agents” (International Journal of Molecular Sciences, 2025).

Series [1] can be described thus: Cyclic voltammetry of Tb, HEDP and ZOL. The following applies: glassy carbon electrode, Ag/AgCl reference, carbonate buffer pH 9.
Series [2] in a line: Radioelectrophoresis (net charge of complexes). As to conditions: 0.05 M phosphate buffer pH 7.4, 250 V, 1 h. Type of series: physicochemical. Here is the method:
Radioelectrophoresis was employed to determine the net charge of the ^161Tb-labeled diphosphonate complexes and to confirm successful radiolabeling. For each sample, 5 μL of the radiolabeled complex or a control solution of ^161TbCl3 was applied to the center of Whatman 3MM chromatography paper strips (2 × 25 cm), which had been pre-soaked in 0.05 M phosphate buffer (pH 7.4). The strips were placed in an electrophoresis chamber filled with the same phosphate buffer, and electrophoresis was carried out at 250 V for 1 h using a Gelman Instrument electrophoresis system (Gelman Instrument Co., Ann Arbor, MI, USA). After radioelectrophoresis, each strip was dried and scanned using a TLC scanner. This method allowed the determination of the migration pattern of the radiolabeled species compared to free ^161Tb^3+, providing information about the charge and integrity of the formed complexes.

Series [3] is described as follows: Biodistribution in healthy Wistar rats. It is filed as in vivo. The following applies: i.v. On the procedure: All animal experiments were conducted using healthy Wistar rats weighing 100–120 g. The rats were obtained from the Military Medical Academy (Belgrade, Serbia). All procedures involving animals were approved by the Ethical Committee of the Vinča Institute of Nuclear Sciences (permission No. 002225501 2025, issued on 20 May 2025) and were performed by the Directive 2010/63/EU of the European Parliament and of the Council of 22 September 2010 [50] on the protection of animals used for scientific purposes, as well as national animal welfare laws.
A total of 0.74 MBq of each ^161Tb-labeled compound (^161Tb-HEDP and ^161Tb-ZOL) and free ^161TbCl3 (at pH 7.5 and pH 4.5) was prepared in a final injection volume of 0.1 mL. Physiological saline was added to adjust the concentration to 10 µg of radiolabeled complex per 0.1 mL. Each formulation was administered intravenously via the lateral tail vein.
Animals (n = 3 per time point) were sacrificed at predetermined intervals: 2 h, 24 h, and 7 d post-injection, depending on the study group. Euthanasia was performed by intraperitoneal injection of a ketamine/xylazine overdose. Immediately after sacrifice, major organs and tissues (heart, lungs, liver, spleen, kidneys, stomach, intestines, muscle, and femur) were collected, weighed, and assessed for radioactivity using a gamma counter. The biodistribution of radiolabeled compounds was expressed as the percentage of the injected dose per gram of tissue (%ID/g), calculated by comparing the sample activity to that of the standard representing 100% of the injected dose. All data are presented as mean ± standard deviation (SD).

The mark [4] stands for this setting: 2 h post-injection (initial), injected at pH 4.5.
Where [5] appears, read: 2 h post-injection, injected at pH 4.5.
Where [6] appears, read: 2 h post-injection, injected at pH 7.5.
Setting [7] is: 7 d post-injection, injected at pH 7.5.

`CC(O)(P(=O)(O)O)P(=O)(O)O` [HEDP, 1-Hydroxyethylidene-1,1-diphosphonic acid]: in series [1], the “Second Oxidation Pot.” value was found to be 1.45 V and the “Second Reduction Pot.” value is given as −0.54 V.

As to `O.O.O.O.O.O.[Cl-].[Cl-].[Cl-].[Tb+3]` [Tb, terbium(III) chloride hexahydrate], in series [1], the “Second Oxidation Pot.” value is 1.39 V and the “Second Reduction Pot.” value was −0.56 V.

In the case of `O=P(O)(O)C(O)(Cn1ccnc1)P(=O)(O)O` [ZOL, 1-hydroxy-2-(1H-imidazol-1-yl)ethane-1,1-diyldiphosphonic acid], in series [1], the “First Oxidation Pot.” value was found to be 0.93 V, the “First Reduction Pot.” value was 0.41 V, the “Second Oxidation Pot.” value worked out at 1.27 V and the “Second Reduction Pot.” value is on record as −0.54 V.

On to `[161Tb+3].[Cl-].[Cl-].[Cl-]` [^161TbCl3], for which the “Migration / net charge in radioelectrophoresis” value in series [2] is recorded as “remained at the point of application”. Besides, in series [3] (setting [4]), the Liver stood at 1.88 ± 0.31 %ID/g and the Spleen uptake is 0.37 ± 0.12 %ID/g. Also, in series [3] (setting [5]), the Blood was 0.02 ± 0.01 %ID/g, the Bone uptake is 7.31 ± 0.32 %ID/g, the Bone-to-kidney ratio is listed as 3.97 and the Bone-to-liver ratio came out at 3.89. In addition, in series [3] (setting [5]), the Muscle was found to be 0.08 ± 0.05 %ID/g and the Other tissues result was “Minimal uptake”. In addition, in series [3] (2 h post-injection, injected at pH 4.5, listed as 161TbCl3 (pH 4.5)), the Kidney came out at 1.84 ± 0.07 %ID/g. In series [3] (setting [6]), the Bone uptake is recorded as 6.53 ± 0.22 %ID/g, the Kidney uptake was 1.03 ± 0.06 %ID/g, the Liver uptake worked out at 6.99 ± 0.21 %ID/g and the Spleen uptake amounted to 4.88 ± 0.15 %ID/g. Besides, the Bone uptake in series [3] (24 h post-injection, injected at pH 7.5) is on record as 6.61 ± 0.14 %ID/g. In series [3] (7 d post-injection, injected at pH 4.5), this molecule displayed a Bone uptake of 7.18 ± 0.12 %ID/g. In series [3] (setting [7]), the Bone uptake amounted to 6.68 ± 0.29 %ID/g, the Kidney uptake is listed as 0.60 ± 0.02 %ID/g, the Liver uptake stood at 2.33 ± 0.02 %ID/g and the Spleen uptake is reported as 0.79 ± 0.02 %ID/g.
